Source: article PMC8501045, “Addressing MRSA infection and antibacterial resistance with peptoid polymers” (Nature Communications, 2021)
≈ marks a conversion by molar mass, not a printed value.

Columns and labels:
E. faecalis 0609 = assay: MIC assay, clinical isolate; assay type: cell-based; settings: Enterococcus faecalis, 0609
Procedure: (§1) MRSA (S. aureus Mu50, S. aureus Newman, S. aureus USA400, S. aureus USA300 LAC, S. aureus USA300) were obtained from Shanghai Institute of Materia Medica, Chinese Academy of Sciences. All clinically isolated Gram-positive bacteria used in this study were isolated from patients with various infections, different ages and sexes in the Shanghai Ruijin Rehabilitation Hospital. All strains were cultured in Luria-Bertani (LB) medium at 37 °C before use.
(§2) Bacteria were cultured in LB medium at 37 °C for 10 h, and then the bacterial suspension was diluted in Mueller–Hinton (MH) medium to a cell density of 2 × 10^5 colony forming units (CFU)/mL as the working suspension. The poly(Naeg)20 was serially diluted by MH medium in a 96-well plate, and an equal volume of bacterial suspension was added into each well. The final concentration of the poly(Naeg)20 was ranging from 200 to 1.56 μg/mL, and the plates were incubated at 37 °C for 9 h. Wells with inoculum and no polymer were used as the positive control; wells with only MH medium were used as the blank. The optical density (OD) in each well was measured on a Molecular Devices SpectraMax M2 precision microplate reader. The percentage of bacteria growth was calculated from1 %cellgrowth=A600polymer-A600blank/A600control-A600blank×100
(§3) The test was independently repeated at least three times.

E. faecalis 2305 = assay: MIC assay, clinical isolate; assay type: cell-based; settings: Enterococcus faecalis, 2305
Procedure: as §1, §2, §3

E. faecium 0502 = assay: MIC assay, clinical isolate; assay type: cell-based; settings: Enterococcus faecium, 0502
Procedure: as §1, §2, §3

E. faecium 0609 = assay: MIC assay, clinical isolate; assay type: cell-based; settings: Enterococcus faecium, 0609
Procedure: as §1, §2, §3

E. faecium 0610 = assay: MIC assay, clinical isolate; assay type: cell-based; settings: Enterococcus faecium, 0610
Procedure: as §1, §2, §3

E. faecium 1205 = assay: MIC assay, clinical isolate; assay type: cell-based; settings: Enterococcus faecium, 1205
Procedure: as §1, §2, §3

E. faecium 2504 = assay: MIC assay, clinical isolate; assay type: cell-based; settings: Enterococcus faecium, 2504
Procedure: as §1, §2, §3

S. agalactiae 0613 = assay: MIC assay, clinical isolate; assay type: cell-based; settings: Streptococcus agalactiae, 0613
Procedure: as §1, §2, §3

S. aureus 2202 = assay: MIC assay, clinical isolate; assay type: cell-based; settings: Staphylococcus aureus, 2202
Procedure: as §1, §2, §3

S. aureus 2802 = assay: MIC assay, clinical isolate; assay type: cell-based; settings: Staphylococcus aureus, 2802
Procedure: as §1, §2, §3

S. aureus 2902 = assay: MIC assay, clinical isolate; assay type: cell-based; settings: Staphylococcus aureus, 2902
Procedure: as §1, §2, §3

S. aureus 2904 = assay: MIC assay, clinical isolate; assay type: cell-based; settings: Staphylococcus aureus, 2904
Procedure: as §1, §2, §3

S. epidermidis 0501 = assay: MIC assay, clinical isolate; assay type: cell-based; settings: Staphylococcus epidermidis, 0501
Procedure: as §1, §2, §3

S. epidermidis 9397 [1] = assay: MIC assay, clinical isolate; assay type: cell-based; settings: Staphylococcus epidermidis, 9397
Procedure: as §1, §2, §3

S. haemolyticus 0202 = assay: MIC assay, clinical isolate; assay type: cell-based; settings: Staphylococcus haemolyticus, 0202
Procedure: as §1, §2, §3

S. haemolyticus 1107 = assay: MIC assay, clinical isolate; assay type: cell-based; settings: Staphylococcus haemolyticus, 1107
Procedure: as §1, §2, §3

S. haemolyticus 1303 = assay: MIC assay, clinical isolate; assay type: cell-based; settings: Staphylococcus haemolyticus, 1303
Procedure: as §1, §2, §3

L. monocytogenes 1001 = assay: MIC assay, clinical isolate; assay type: cell-based, Listeria monocytogene; settings: Listeria monocytogenes, 1001
Procedure: as §1, §2, §3

S. aureus USA300 LAC = assay: Mouse full-thickness wound infection model, MRSA; assay type: in vivo; settings: 1.56 mg/mL topical
Procedure: This infection model was conducted according to the previously reported method with slight modification. Female balb/c mice (20–21 g) were used in the full-thickness wound model caused by MRSA. Prior to surgery, mice were anesthetized with an intraperitoneal injection of sodium pentobarbital at a dose of 75 mg/kg. The dorsal hair was shaved, and the skin was rinsed with 75% alcohol three times. The 6-mm-diameter full-thickness wounds were punctured on either side of the back using a biopsy punch. An aliquot of 10 µL S. aureus USA300 LAC suspension (1.25 × 10^5 CFU/mL) was added to wound site. The wound site was covered by Tegaderm dressing (3 M, St Paul, MN) to prevent contamination. […] The treatments were applied every 4 h for a total of three times. After the last treatment for 4 h, mice were euthanized with an overdose of sodium pentobarbital. The wound sites were excised, weighed, and homogenized in PBS containing 0.1% TX-100. Then the homogenate was serially diluted for plating on LB agar. After incubation at 37 °C for 14 h, the number of colonies on the plate was counted to calculate the bacteria burden of wounds.

[2] = system: S. aureus USA300 LAC biofilm; assay: Mouse keratitis model, MRSA biofilm on contact lens; assay type: in vivo; settings: 1.56 mg/mL topical
Procedure: The contact lenses were cut into discs with a diameter of 3.5 mm and placed in a 96-well plate. The discs were soaked with 150 μL of MH medium overnight. Then the discs were transferred to a new 96-well plate and 150 μL of S. aureus USA300 LAC suspension (10^5 CFU/mL in MH medium) was added into corresponding wells. The plate was incubated at 37 °C with shaking at 100 rpm. After 2 h incubation, the suspension was aspirated and the lenses were washed with PBS to remove any nonadherent cells, followed by the addition of 150 μL of fresh MH medium. The plate containing the contact lenses with adhered cells was incubated at 37 °C with shaking at 100 rpm for 18 h to allow biofilm formation.
Male balb/c mice (22–24 g) were intraperitoneally injected with cyclophosphamide (150 mg/kg at 4 days and 100 mg/kg at 1 day before inducing keratitis) for immunosuppression. […] In addition, 0.5% tetracaine hydrochloride eye drops were used as topical anesthesia and then a 2 mm-diameter filter paper disc containing 2 μL of 99% 1-heptanol was placed on the center of the cornea for 15 min. […] All mice were killed and the eyeballs of each mouse were collected immediately 30 min after the last treatment, followed by the quantitative analysis of bacterial burden.

S. epidermidis 9397 [3] = assay: Mouse peritonitis model, survival test, S. epidermidis; assay type: in vivo; settings: i.p. 20 mg/kg, 7 days
Procedure: This infection model was conducted according to the previously reported method with slight modification. Female ICR mice (21–24 g) were used for MRSA-infected peritonitis model. Mice were infected by intraperitoneal administration of 0.2 mL of S. aureus USA300 LAC in saline (7.5 × 10^8 CFU/mL) supplemented with 5% mucin. […] Once the infected mice died, peritoneal lavage was performed by injecting 3.0 mL of saline into the peritoneal cavity and massaging the abdomen. Subsequently, the abdomen was opened and peritoneal fluid was recovered from the abdominal cavity for analysis. Blood samples were collected through cardiac puncture for analysis of CFU/mL. Then, different organs including the heart, liver, spleen, lung, and kidney were removed and homogenized in 0.1% TX-100 solution. The homogenate was serially diluted for plating on LB agar. After incubation at 37 °C for 14 h, the number of colonies on the plate was counted to calculate the bacteria burden. Surviving mice were euthanized at 48 h after infection. The blood, peritoneal fluid, and organs were collected for the determination of bacterial colonies. […] For the pretreatment group, mice were sacrificed and tissues were harvested to determine the CFU at 1 h post infection. […]

Work on `CN[C@H](CC(C)C)C(=O)N[C@H]1C(=O)N[C@@H](CC(N)=O)C(=O)N[C@H]2C(=O)N[C@H]3C(=O)N[C@H](C(=O)N[C@H](C(=O)O)c4cc(O)cc(O)c4-c4cc3ccc4O)[C@H](O)c3ccc(c(Cl)c3)Oc3cc2cc(c3O[C@@H]2O[C@H](CO)[C@@H](O)[C@H](O)[C@H]2O[C@H]2C[C@](C)(N)[C@H](O)[C@H](C)O2)Oc2ccc(cc2Cl)[C@H]1O` [Vancomycin] yielded an MIC (E. faecalis 0609) of 0.39 µg/mL (≈ 0.269 µM), an MIC (E. faecalis 2305) of 0.78 µg/mL (≈ 0.538 µM) and an MIC (E. faecium 0502) greater than 200 µg/mL. For the same molecule, the MIC (E. faecium 0609) was 50 µg/mL (≈ 34.5 µM), the MIC (E. faecium 0610) was 0.78 µg/mL (≈ 0.538 µM) and the MIC (E. faecium 1205) was 0.39 µg/mL (≈ 0.269 µM). For the same molecule, the MIC (E. faecium 2504) was 0.78 µg/mL (≈ 0.538 µM), the MIC (S. agalactiae 0613) was 0.78 µg/mL (≈ 0.538 µM) and the MIC (S. aureus 2202) was 0.78 µg/mL (≈ 0.538 µM). It also gave an MIC (S. aureus 2802) of 0.39 µg/mL (≈ 0.269 µM), an MIC (S. aureus 2902) of 0.39 µg/mL (≈ 0.269 µM) and an MIC (S. aureus 2904) of 0.39 µg/mL (≈ 0.269 µM). For the same molecule, the MIC (S. epidermidis 0501) was 0.78 µg/mL (≈ 0.538 µM), the MIC (S. epidermidis 9397 [1]) was 0.78 µg/mL (≈ 0.538 µM) and the MIC (S. haemolyticus 0202) was 1.56 µg/mL (≈ 1.08 µM). It also gave an MIC (S. haemolyticus 1107) of 0.78 µg/mL (≈ 0.538 µM), an MIC (S. haemolyticus 1303) of 0.78 µg/mL (≈ 0.538 µM) and an MIC (L. monocytogenes 1001) of 0.39 µg/mL (≈ 0.269 µM). For the same molecule, the “reduction in the bacterial burden on the wound compared with the saline group” value (S. aureus USA300 LAC) was ~ 1.2 log, the “reduction of the bacterial load of each eye of the mouse” value [2] was “ineffective” and the mice survived (S. epidermidis 9397 [3]) was 4/6.
